Consider four molecules from US8557530B2, “Use of a TAS2R7 nucleic acid sequence to identify modulators” (Givaudan SA, priority 2008, dated 2013).

For assay [1], the target named is T1, human TAS2R7 (Homo sapiens, UniProt Q9NYW3, L71P).
T1 construct: RSS tag (first 45 amino acids of rat somatostatin receptor subtype 3, membrane export tag) (N); expressed in transfected cells
T1 sequence (Q9NYW3 with tags, fused parts or gaps L71P): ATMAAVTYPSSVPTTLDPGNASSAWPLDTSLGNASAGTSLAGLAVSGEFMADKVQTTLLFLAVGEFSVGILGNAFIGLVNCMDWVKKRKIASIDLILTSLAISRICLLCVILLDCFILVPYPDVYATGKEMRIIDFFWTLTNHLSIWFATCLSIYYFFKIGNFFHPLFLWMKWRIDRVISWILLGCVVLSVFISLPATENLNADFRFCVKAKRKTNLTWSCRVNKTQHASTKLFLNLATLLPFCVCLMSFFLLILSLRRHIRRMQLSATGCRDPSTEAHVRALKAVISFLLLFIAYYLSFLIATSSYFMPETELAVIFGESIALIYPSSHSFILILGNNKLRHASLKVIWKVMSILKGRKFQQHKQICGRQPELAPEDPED
As to the kind of experiment: Fluo-4 calcium assay, HEK293T/Gα16-gustducin44 cells transiently expressing TAS2R7. Type of assay: cell-based. Conditions: for TAS2R7 ΔF/F0: transiently transfected cells. How it is done: On day 0, the HEK293T/Gα16-gustducin 44 cells were plated in 96-well black wall, clear-bottom plates at a density of 15,000 cells per well and grown overnight in growth media (DMEM with 10% (v/v) heat-inactivated fetal bovine serum, 2 mM L-glutamine, 100 units/ml penicillin, 100 μg/ml streptomycin).
On day 1, the media was changed to an antibiotic-free and serum-free DMEM. The cells were transfected with TAS2R7 using Lipofectamine 2000 (Invitrogen).
Per well of a 96-well plate, 150 ng of vector DNA (TAS2R7 expression vectors from example 1) was diluted in 12.5 μl of DMEM. In a second tube, 0.3 μl of Lipofectamine 2000 was diluted in 12.5 μl of DMEM and incubated for 5 min at room temperature. After the 5 min, both solutions were mixed and incubated for 20 min at RT. The growth medium in the plate was exchanged for 50 μl of DMEM and 25 μl of the lipofectamine/DNA mixture was incubated on the cells for 3-4 hours at 37° in a humidified atmosphere. This mixture was then replaced with an antibiotic-free, serum-containing DMEM.
24 hours post transfection, the cells were used in the Fluo-4 Calcium Assay as described in Example 3.
(§1) At day 0, the HEK293T cell line expressing Gα16-gustducin44 and a TAS2R7 bitter taste receptor formed as described in examples 2a or 2b was seeded in antibiotic-free growth medium (standard DMEM with 10% (v/v) heat-inactivated fetal bovine serum, 2 mM L-glutamine […]) into black wall/clear bottom 96-well plates, coated with poly(ethylenimine) (0.005% v/v) at a concentration of 15,000 cells per well and incubated for 48 hours in humidified atmosphere (37° C., 5% CO2).
(§2) At the time of the assay, the growth medium was discarded and the cells were in humidified atmosphere (37° C., 5% CO2) for 1 hour with […] of loading buffer consisting of 1.5 μM Fluo-4 AM and 2.5 mM probenecid (Sigma-Aldrich, St. Louis, Mo., U.S.) in DMEM.
(§3) Afterwards, the 96-well plate was washed 5 times with 100 μl of assay buffer (130 mM NaCl, 5 mM KCl, 10 mM HEPES, 2 mM CaCl2, and 5 mM dextrose, pH 7.4) per well, using an automated plate washer (BioTek). The plate was further incubated for 30 minutes at room temperature in the dark to allow for complete de-esterification of the Fluo-4. Afterwards the plate was washed 5 times with 100 μl of assay buffer per well, and reconstituted with 100 μl of assay buffer per well.
(§4) For assay reading the plate was placed in a Fluorometric Imaging Plate Reader (FLIPR) (FLIPR-TETRA™, Molecular Devices, Sunnyvale, Calif., US), and receptor activation was initiated by addition of 20 microliter of a tenfold concentrated agonist stock solution (to give the desired agonist end concentration when added to the 180 microliter assay buffer volume), which was prepared in assay buffer.
(§5) Fluorescence was continuously monitored for 20 seconds to give a signal baseline (averaged to give F0) prior to agonist addition and for 120 seconds after agonist addition. The change in signal divided by F0 gives ΔF/F0 indicated in the table, with ΔF being the maximum signal occurring within the 120 seconds minus the minimum signal (occurring within the 120 seconds after agonist addition).
(§6) The obtained calcium signals were corrected for the response of cells expressing only the G-Protein α subunit (Gα16-gustducin44) and normalized to the fluorescence of cells prior to the stimulus using ΔF/F0 (Fmax−Fmin/F0).
The intracellular calcium response following the addition of L-menthol was determined in a HEK293T cell line stably expressing Gα16-gustducin44 and transiently expressing TAS2R7, formed as described in example 2a.

The subject of assay [2] is more than 15 of the other human TAS2Rs. The assay can be described thus: Activation test on other human TAS2Rs. Type of assay: cell-based. Particulars: more than 15 other human TAS2Rs.
For assay [3], the target named is T1, human TAS2R7. As to the kind of experiment: Fluo-4 calcium assay, HEK293T/Gα16-gustducin44 cell line stably expressing TAS2R7. It counts as cell-based. Particulars: stable cell line. How it is done: Cell lines that stably expresses TAS2R7 was generated by transfecting the pcDNA3.1Zeo-TAS2R7 construct into HEK293T/Gα16-gustducin 44 cells (formed as described in example 1). The host cell line HEK-293T is commercially available from the American Tissue Culture Collection (ATCC), ATCC®#CRL-11268.
TAS2R7 expressing cells were identified by their response to 2.6 mM L-menthol, which was determined via automated fluorimetric imaging on the FLIPR-TETRA™ (Molecular Devices, Sunnyvale, Calif., U.S.) as described in example 3. One clone was selected, resulting in the HEK293T/Gα16-gustducin 444/TAS2R7 cell line.
as §1, §2, §3, §4, §5
All data was collected from at least two independent experiments each carried out in triplicate.
A concentration-response analysis was performed and EC50 values were calculated by nonlinear regression using the function f(x)=(a−d)/(1+(x/C)^nh)+d; with a=minimum signal, d=maximum signal, nh=hill coefficient, C=EC50, and x=agonist concentration. EC50 is the molar concentration of an agonist which produces 50% of the maximum possible effective response for that agonist.
as §6
To confirm that the cell line formed in example 2b stably expresses the bitter taste receptor TAS2R7, a concentration-response curve for L-menthol was generated. […] The standard deviation (+/−STD) is also indicated.
Each sample (receptors as well as controls) contained a final concentration of 0.02% DMSO to allow for comparability of all examples below.

The test system of assay [4] is HEK293T Gα16gustducin44 cells (that do not express TAS2R7). As to the kind of experiment: Fluo-4 calcium assay, negative control HEK293T Gα16gustducin44 cells that do not express TAS2R7. Type of assay: cell-based, human. Conditions: cells without TAS2R7.
Assay [5] concerns the target T2, TAS2R7 (Homo sapiens, UniProt Q9NYW3).
T2 sequence (Q9NYW3 1-318): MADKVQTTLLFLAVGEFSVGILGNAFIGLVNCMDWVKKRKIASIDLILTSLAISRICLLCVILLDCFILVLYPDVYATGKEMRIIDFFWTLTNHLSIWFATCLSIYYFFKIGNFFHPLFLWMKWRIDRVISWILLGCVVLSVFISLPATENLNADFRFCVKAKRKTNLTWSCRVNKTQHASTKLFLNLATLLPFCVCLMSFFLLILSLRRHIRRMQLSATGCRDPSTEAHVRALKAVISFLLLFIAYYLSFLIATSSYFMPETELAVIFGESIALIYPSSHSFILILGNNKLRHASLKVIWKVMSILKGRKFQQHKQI
Particulars: known from the art; cited from earlier work.

One may read the EC50 as the midpoint of the concentration-response curve.

Regarding `CC1CC[C@H](C(C)C)[C@@H](O)C1` (stereo partly drawn) [D-menthol], the “activation of TAS2R7” value in assay [1] (similar results as for L-menthol) was “shown to activate TAS2R7”.
For `CC(C)[C@@H]1CC[C@@H](C)C[C@H]1O` [L-menthol], the “TAS2R7 ΔF/F0” value in assay [1] (L-menthol 0.01 mM) is 0.09; in assay [1] (L-menthol 0.02 mM), 0.08; in assay [1] (L-menthol 0.04 mM), 0.08; in assay [1] (L-menthol 0.08 mM), 0.10; in assay [1] (L-menthol 0.16 mM) it was 0.15; in assay [1] (L-menthol 0.33 mM), 0.34. The “TAS2R7 ΔF/F0” value is reported as 0.41 in assay [1] (L-menthol 0.65 mM); 0.53 in assay [1] (L-menthol 1.30 mM); 0.65 in assay [1] (L-menthol 2.60 mM); 0.09 in assay [3] (L-menthol 0.01 mM); 0.09 in assay [3] (L-menthol 0.02 mM); 0.13 in assay [3] (L-menthol 0.04 mM). The “TAS2R7 ΔF/F0” value in assay [3] (L-menthol 0.08 mM) is 0.12; in assay [3] (L-menthol 0.16 mM) it was 0.23; in assay [3] (L-menthol 0.33 mM), 0.61; in assay [3] (L-menthol 0.65 mM) it was 1.03; in assay [3] (L-menthol 1.30 mM), 1.16; in assay [3] (L-menthol 2.60 mM) it was 0.92. Besides, the “calcium signalling upon addition” value in assay [1] (cells transiently expressing human TAS2R7) was “significant concentration-dependent increase”. Moreover, the “activation of other human TAS2Rs” value in assay [2] is given as “not to be activated”. Besides, the “activation of TAS2R7” value in assay [3] is recorded as “activated”. In assay [3] (nonlinear regression of concentration-response, read-out: calculated EC50 value for TAS2R7), the EC50 is 310 µM. The “Neg. Control ΔF/F0” value in assay [4] (L-menthol 0.01 mM) is on record as 0.09; in assay [4] (L-menthol 0.02 mM), 0.08; in assay [4] (L-menthol 0.04 mM), 0.08; in assay [4] (L-menthol 0.08 mM) it was 0.10; in assay [4] (L-menthol 0.16 mM), 0.15; in assay [4] (L-menthol 0.33 mM), 0.34. Also, the “Neg. Control ΔF/F0” value in assay [4] (L-menthol 0.65 mM) came to 0.41; in assay [4] (L-menthol 1.30 mM), 0.53; in assay [4] (L-menthol 2.60 mM) it was 0.65. Moreover, the “change above the background signal in negative control” value in assay [4] is “did not show a significant change above the background signal”.
On to `CCN(CC)CCCC(C)Nc1ccnc2cc(Cl)ccc12` (centres unmarked) [chloroquine], for which, in assay [5], the “response of TAS2R7” value is “known to respond”.
For `C=C[C@H]1C[N@@]2CC[C@H]1C[C@H]2[C@H](O)c1ccnc2ccc(OC)cc12` [quinine], the “response of TAS2R7” value in assay [5] is on record as “known to respond”.
